Here are results for eight molecules from PubChem BioAssay (NCI).

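Exposure lasted 48 hours, with cells grown in 96-well plates and compounds tested at five concentrations. GI50: concentration for 50% inhibition of growth. The concentration for full growth arrest is given as TGI.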

Some test systems named below: BT-549 breast; CCRF-CEM leukemia; HOP-62 NSCLC; K-562 leukemia; NCI-H460 lung; NCI-H522 lung; NCI/ADR-RES ovarian; SF-539 CNS; TK-10 renal; UACC-62 melanoma.
Holding throughout (experiment): NCI tumour cell line growth inhibition, 48 h

`COc1ccc(C2[C@@H](c3ccccc3)C(=O)N2c2cc(OC)c(OC)c(OC)c2)cc1F` (stereo not given in full): the GI50 is 0.0266 µM with BT-549 breast; 0.0361 µM with CCRF-CEM leukemia; 0.0379 µM in the assay with HOP-62 NSCLC; 0.0321 µM with K-562 leukemia; 0.0344 µM in the assay on NCI-H460 lung; 0.0186 µM in the assay on NCI-H522 lung. Moreover, the GI50 in the assay on NCI/ADR-RES ovarian was 0.0394 µM; in the assay on SF-539 CNS, 0.0234 µM; with TK-10 renal it was 1.68 µM; with UACC-62 melanoma it was 0.0543 µM. The TGI with BT-549 breast is 0.09 µM; in the assay on CCRF-CEM leukemia, over 100 µM; with HOP-62 NSCLC it was over 100 µM; in the assay with K-562 leukemia, over 100 µM; in the assay on NCI-H460 lung, over 100 µM; in the assay with NCI-H522 lung, 0.0657 µM. For the same molecule, the TGI in the assay with NCI/ADR-RES ovarian was over 100 µM; in the assay with SF-539 CNS, 0.0706 µM; in the assay with TK-10 renal, over 100 µM; with UACC-62 melanoma it was over 100 µM.

On to `CCN(Cc1ccc(F)cc1)c1cc(Cl)c(CO)c(Cl)c1`, for which the GI50 in the assay on BT-549 breast is 13.6 µM; in the assay with CCRF-CEM leukemia, 16.8 µM; in the assay with HOP-62 NSCLC, 14 µM; with K-562 leukemia it was 15.9 µM; in the assay on NCI-H460 lung, 11.8 µM; with NCI-H522 lung, 10.8 µM. In addition, the GI50 in the assay on NCI/ADR-RES ovarian was 13.7 µM; with SF-539 CNS it was 16.2 µM; in the assay on TK-10 renal, 2.58 µM; in the assay with UACC-62 melanoma it was 4.98 µM. In addition, the TGI in the assay with BT-549 breast turned out to be 28.3 µM; in the assay on CCRF-CEM leukemia it was 47.7 µM; with HOP-62 NSCLC, 27.2 µM; with K-562 leukemia it was 51.6 µM; with NCI-H460 lung, 25.9 µM; with NCI-H522 lung it was 25.7 µM. Further, the TGI with NCI/ADR-RES ovarian came to 31.4 µM; in the assay on SF-539 CNS, 30.4 µM; in the assay on TK-10 renal it was 13.8 µM; with UACC-62 melanoma, 17.9 µM.

In the case of `CC(=O)CC(OC(C)=O)C1=CCC2C(CC1C)OC(=O)C2C` (stereo not given), the TGI in the assay on BT-549 breast, with CCRF-CEM leukemia, in the assay with HOP-62 NSCLC, in the assay with K-562 leukemia, in the assay with NCI-H460 lung and in the assay on NCI-H522 lung was over 100 µM throughout. Besides, the TGI with NCI/ADR-RES ovarian, in the assay with SF-539 CNS, in the assay with TK-10 renal and in the assay with UACC-62 melanoma was over 100 µM throughout.

Regarding `C/C(=C\CBr)CCC(Br)C(C)(C)Br` (stereo not given), the TGI with BT-549 breast, in the assay with CCRF-CEM leukemia, in the assay with HOP-62 NSCLC, with K-562 leukemia, in the assay on NCI-H460 lung and with NCI-H522 lung was over 100 µM in each case. The TGI in the assay on NCI/ADR-RES ovarian, in the assay on SF-539 CNS, with TK-10 renal and in the assay on UACC-62 melanoma was over 100 µM each time.

For the molecule `CCCCCCCCCCn1cc[n+](C)c1`, the GI50 was 1.56 µM in the assay on BT-549 breast; 0.43 µM in the assay on CCRF-CEM leukemia; 3.16 µM in the assay on HOP-62 NSCLC; 0.263 µM in the assay on K-562 leukemia; 3.52 µM in the assay with NCI-H460 lung; 1.86 µM with NCI-H522 lung. Moreover, the GI50 in the assay with NCI/ADR-RES ovarian was 47.4 µM; in the assay with SF-539 CNS it was 2.51 µM; in the assay with TK-10 renal, 1.24 µM; in the assay on UACC-62 melanoma, 2.53 µM. For the same molecule, the TGI came to 8.2 µM with BT-549 breast; 4.51 µM in the assay on CCRF-CEM leukemia; 17.5 µM with HOP-62 NSCLC; 3.67 µM in the assay on K-562 leukemia; 19.2 µM with NCI-H460 lung; 10.4 µM in the assay on NCI-H522 lung. The TGI was over 100 µM with NCI/ADR-RES ovarian, 13.5 µM with SF-539 CNS, 9.58 µM in the assay on TK-10 renal and 10.6 µM in the assay on UACC-62 melanoma.

Take `O=C1CCCCN1c1ccccc1C#C/C=C\C#Cc1ccccc1C(F)(F)F`: the GI50 with BT-549 breast was 2.59 µM; in the assay on CCRF-CEM leukemia, 1.56 µM; with HOP-62 NSCLC it was 0.899 µM; in the assay on K-562 leukemia, 1.46 µM; in the assay with NCI-H460 lung, 2.16 µM; in the assay with NCI-H522 lung, 1.19 µM. Further, the GI50 in the assay with NCI/ADR-RES ovarian was 0.946 µM; in the assay on SF-539 CNS, 1.44 µM; with TK-10 renal it was 3.35 µM; in the assay with UACC-62 melanoma it was 1.44 µM. In addition, the TGI in the assay on BT-549 breast is 14.5 µM; with CCRF-CEM leukemia, 3.96 µM; in the assay with HOP-62 NSCLC, 2.94 µM; in the assay with K-562 leukemia, 8.65 µM; in the assay with NCI-H460 lung it was over 50 µM; in the assay on NCI-H522 lung, 3.1 µM. Moreover, the TGI in the assay with NCI/ADR-RES ovarian worked out at 2.48 µM; in the assay on SF-539 CNS, 4.43 µM; with TK-10 renal, 30.8 µM; in the assay on UACC-62 melanoma, 4.86 µM.

`CN(C)c1cc(NN=C(c2ccc(O)cc2)c2ccc(O)cc2)c([N+](=O)[O-])cc1[N+](=O)[O-]`: the GI50 in the assay with BT-549 breast is 6.32 µM; with CCRF-CEM leukemia, 2.58 µM; in the assay on HOP-62 NSCLC it was 10.5 µM; in the assay on K-562 leukemia, 3.61 µM; in the assay with NCI-H460 lung, 4.36 µM; with NCI-H522 lung, 10.5 µM. Also, the GI50 with NCI/ADR-RES ovarian was 5.3 µM; in the assay on SF-539 CNS, 11.8 µM; in the assay with TK-10 renal, 7.35 µM; in the assay on UACC-62 melanoma it was 3.41 µM. Further, the TGI with BT-549 breast was 21.5 µM; with CCRF-CEM leukemia it was 17.9 µM; with HOP-62 NSCLC, 26.1 µM; in the assay on K-562 leukemia, over 100 µM; in the assay with NCI-H460 lung, 15.9 µM; with NCI-H522 lung it was 38.4 µM. Moreover, the TGI with NCI/ADR-RES ovarian was determined as 27 µM; in the assay with SF-539 CNS, 24.1 µM; with TK-10 renal it was 22 µM; with UACC-62 melanoma, 14.4 µM.

As for `O=C(O)c1ccc2c(c1C(=O)O)C(=O)OC2(c1ccc(O)cc1)c1ccc(O)cc1`, the TGI in the assay with BT-549 breast, in the assay on CCRF-CEM leukemia, in the assay with HOP-62 NSCLC, in the assay on K-562 leukemia, with NCI-H460 lung and in the assay with NCI-H522 lung was over 100 µM each time. For the same molecule, the TGI in the assay on NCI/ADR-RES ovarian, with SF-539 CNS, in the assay on TK-10 renal and in the assay with UACC-62 melanoma was over 100 µM throughout.
